{
  "source": "patent US20060079696A1",
  "about": "“Substituted compounds derived from N-(benzyl)phenylacetamide, preparation and uses” (GENFIT, priority 2004, published 2006)",
  "key": {"Male Sprague-Dawley rats": {"system": "Male Sprague-Dawley rats", "assay": "Glycemia and insulinemia after oral administration in fasted rats", "type": "in vivo, rat", "text": "In normal animals (as in man), the consequence of the administration of insulinotropic compounds is a significant increase in the plasmatic level of insulin. This induced hyperinsulinemia induces a reduction in glycemia. This example studies the evolution of glycemia and of insulinemia following oral administration of the inventive compounds in rats: the insulinotropic action of the compounds in vivo should induce a significant decrease of glycemia.\nMale Sprague-Dawley rats (300-320 g) (CERJ—Le Genest St Isle-France) were used in order to carry out this experiment. The rats were fed with a standard diet of granular material; they had free access to food and drink and were kept in individual, ventilated cages in a 12 hr/12 hr light/dark rhythm. The animals were deprived of food for 16 hours prior to the experiment.\nThe compound was suspended in an aqueous carboxymethylcellulose solution (Sigma C4888) at 1% containing 0.1% Tween80 (Sigma P8074). The animals of the control group received the vehicle alone. The treated animals received a single administration of the compound (the suspension was administered by gavage at the rate of 10 ml/kg). Each group was made up of 11 animals. A 1st blood sample was taken by puncturing the retro-orbital sinus of the animals under volatile isoflurane anaesthesia: this sample makes up the initial time of the experiment. The substance or the vehicle were immediately administered to the animals by gavage, and blood samples were taken over time.\nThe animals' glycemia was measured in real time using a glucometer (Glucotrend2-Roche Diagnostic-France). The insulinemias were measured using an ELISA kit (Insulin Elisa Kit—Crystal Chem. USA). The method used was of the ELISA type: plasmatic insulin was specifically bound to anti-insulin monoclonal antibodies immobilised on the microtitration plate; simultaneously, an anti-insulin polyclonal guinea pig antibody was added to the reaction. The revelation of the reaction was guaranteed by an antibody coupled to peroxidase. These antibodies bind specifically to the guinea pig's immunoglobulins. The production of oxidised chromogen causes an increase in absorbance in proportion to the quantity of insulin present in the sample."}, "[1]": {"system": "isolated human pancreatic islets", "assay": "Insulin secretion by isolated human pancreatic islets", "type": "cell-based", "conditions": "1 hour incubation", "procedure": "Isolated islets of Langerhans were put together with compounds according to the invention. They were incubated for one hour, and then the supernatant was taken off. The insulin contained in the supernatant (which corresponds to the insulin secreted by the islets over 1 hr) was titrated. It was compared to the basal secretion of insulin, i.e. to the quantity of insulin secreted by the islets over 1 hour in the absence of a compound. The higher the induced insulin/basal insulin ratio, the stronger the insulinotropic potential of the compound.\nThis study was carried out in the cellular therapy of diabetes laboratory led by Professor Pattou (INSERM ERIT-M 0106, Faculty of medicine of Lille, France (59)). The protocols for the extraction of islets and culture are published (Riachy, Vandewalle et al. 2001). The islets were cultured in a CMRL1066 (Gibco BRL) medium containing 5.5 mmol/l glucose. They were put together with the compounds (+0.001% DMSO). The insulin secreted was measured after 1 hour incubation (titration of the supernatant after centrifugation and extraction as described in the reference) according to a radioimmunological titration method (BI-INSULIN IRMA kit, Sanofi Diagnostics Pasteur). Each condition was applied to 5 independent islets preparations, each containing 40 equivalent islets (40 IE). […]"}, "[2]": {"molecular_target": "T1, ATP-dependent potassium channels (K+ATP) (Rattus norvegicus, UniProt Q09429)", "T1 construct": "the potassium channels derive from a rat's cerebral cortex; tissue CEREP; host or cells: rat cerebral cortex", "T1 sequence (Q09429 whole entry)": "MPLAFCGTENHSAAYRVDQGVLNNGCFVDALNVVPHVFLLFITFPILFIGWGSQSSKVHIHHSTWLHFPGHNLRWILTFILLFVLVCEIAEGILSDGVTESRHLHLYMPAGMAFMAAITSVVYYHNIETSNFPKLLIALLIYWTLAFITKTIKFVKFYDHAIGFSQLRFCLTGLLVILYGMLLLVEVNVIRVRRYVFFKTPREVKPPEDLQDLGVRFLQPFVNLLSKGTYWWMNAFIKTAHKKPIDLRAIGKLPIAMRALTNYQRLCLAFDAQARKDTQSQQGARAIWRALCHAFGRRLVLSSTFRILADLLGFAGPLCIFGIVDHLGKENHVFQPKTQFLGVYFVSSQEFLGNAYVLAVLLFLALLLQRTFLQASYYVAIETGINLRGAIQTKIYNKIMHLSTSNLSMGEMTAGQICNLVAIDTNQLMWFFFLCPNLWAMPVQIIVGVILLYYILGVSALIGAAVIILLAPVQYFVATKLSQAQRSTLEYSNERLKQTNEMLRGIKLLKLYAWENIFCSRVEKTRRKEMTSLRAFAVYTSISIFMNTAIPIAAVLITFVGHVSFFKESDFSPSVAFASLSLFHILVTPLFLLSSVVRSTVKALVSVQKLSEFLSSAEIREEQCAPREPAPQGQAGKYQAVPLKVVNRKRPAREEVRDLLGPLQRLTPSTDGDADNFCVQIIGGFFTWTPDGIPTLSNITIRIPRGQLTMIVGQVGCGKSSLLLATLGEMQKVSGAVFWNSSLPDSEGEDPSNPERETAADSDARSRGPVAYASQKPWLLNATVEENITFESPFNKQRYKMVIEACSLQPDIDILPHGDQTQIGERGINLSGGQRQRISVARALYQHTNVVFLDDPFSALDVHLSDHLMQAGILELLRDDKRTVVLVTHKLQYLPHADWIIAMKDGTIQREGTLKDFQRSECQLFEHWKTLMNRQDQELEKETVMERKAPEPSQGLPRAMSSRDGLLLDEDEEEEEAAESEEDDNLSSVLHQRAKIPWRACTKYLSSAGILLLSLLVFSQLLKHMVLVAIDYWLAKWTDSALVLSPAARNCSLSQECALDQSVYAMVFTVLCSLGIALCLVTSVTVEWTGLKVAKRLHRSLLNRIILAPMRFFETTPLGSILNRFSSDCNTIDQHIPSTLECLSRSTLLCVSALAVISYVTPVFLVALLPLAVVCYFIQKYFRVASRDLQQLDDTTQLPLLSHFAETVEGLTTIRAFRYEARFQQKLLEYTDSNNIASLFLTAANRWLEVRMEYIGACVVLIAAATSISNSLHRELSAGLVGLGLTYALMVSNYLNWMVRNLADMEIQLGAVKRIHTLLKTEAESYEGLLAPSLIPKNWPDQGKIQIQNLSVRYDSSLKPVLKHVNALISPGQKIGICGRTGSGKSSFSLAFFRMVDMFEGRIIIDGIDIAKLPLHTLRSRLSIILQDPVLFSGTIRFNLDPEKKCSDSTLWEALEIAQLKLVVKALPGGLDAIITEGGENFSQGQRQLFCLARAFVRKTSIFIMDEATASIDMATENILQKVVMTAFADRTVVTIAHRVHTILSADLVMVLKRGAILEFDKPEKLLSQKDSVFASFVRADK", "T1 sequence (P70673 whole entry partner)": "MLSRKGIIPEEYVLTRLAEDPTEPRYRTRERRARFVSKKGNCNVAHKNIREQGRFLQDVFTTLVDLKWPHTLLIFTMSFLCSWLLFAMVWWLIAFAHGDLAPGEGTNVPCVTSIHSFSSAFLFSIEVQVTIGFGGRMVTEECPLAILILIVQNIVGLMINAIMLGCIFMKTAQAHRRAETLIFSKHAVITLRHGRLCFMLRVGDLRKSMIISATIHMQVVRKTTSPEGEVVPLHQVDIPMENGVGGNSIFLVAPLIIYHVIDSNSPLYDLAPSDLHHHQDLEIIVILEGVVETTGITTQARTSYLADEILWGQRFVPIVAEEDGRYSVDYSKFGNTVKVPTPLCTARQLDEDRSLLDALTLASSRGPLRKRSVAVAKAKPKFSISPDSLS", "assay": "[3H]glibenclamide binding to ATP-dependent potassium channels of rat cerebral cortex", "conditions": "FIG. 2", "outline": "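Rat cerebral cortex membranes incubated 1 h at 22° C with 0.1 nM [3H]glibenclamide; nonspecific binding defined with 1 μM unlabelled glibenclamide. Compounds tested at 3–300 nM; values are percent inhibition of specific binding.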"}},
  "data": [
    {"smiles": "CC(C)CC(NC(=O)Cc1ccc(OC(C)(C)C(=O)O)cc1)c1ccccc1N1CCCCC1", "note": "(stereo not drawn) [Compound 1, 2-[4-[1-(3-methyl-1-(2-(1-piperidinyl)phenyl)butyl)aminocarbonylmethyl]phenoxy]-2-methylpropanoic acid]", "values": [
      {"measurement": "decrease in glycemia between T=0 and T=120 min", "setting": "Male Sprague-Dawley rats; 50 mpk, oral, fasted rat", "result": 48, "unit": "%"},
      {"measurement": "plasmatic insulin peak, time following administration", "setting": "Male Sprague-Dawley rats; 50 mpk, oral, fasted rat", "result": 15, "unit": "min"},
      {"measurement": "hypoglycemia kinetics and amplitude compared with compound 52", "setting": "Male Sprague-Dawley rats; comparison of FIGS. 5a and 5c", "result": "faster and more intense"},
      {"measurement": "insulinotropic activity on human islets", "setting": "[1]; 0.1 μM", "result": "not having any significant insulinotropic activity"},
      {"measurement": "insulin secreted in 1 hour versus non-treated islets", "setting": "[1]; 1 μM", "result": "~4", "unit": "times"},
      {"measurement": "IC50", "setting": "[2]", "result": 14, "unit": "nM"}
    ]}
  ]
}
